This passage reports IC50 results from patent US9862706B2, “Compounds” (CHIESI FARMACEUTICI S.P.A., priority 2016, dated 2018).

Some results are limits rather than exact numbers.

The target of the test is T1, human neutrophil elastase (HNE) (Homo sapiens, UniProt P08246).
T1 construct: purchased Sigma E8140
T1 sequence (P08246 30-247 limits assumed): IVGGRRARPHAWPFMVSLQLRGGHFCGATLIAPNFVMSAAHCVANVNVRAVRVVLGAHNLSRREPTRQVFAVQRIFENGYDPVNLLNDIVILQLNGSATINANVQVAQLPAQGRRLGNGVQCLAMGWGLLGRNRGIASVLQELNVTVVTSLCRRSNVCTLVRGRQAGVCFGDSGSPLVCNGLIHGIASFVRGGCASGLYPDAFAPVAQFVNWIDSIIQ
Put plainly: HNE enzyme assay. To be noted: human leukocyte elastase 0.00072 U/mL; substrate MeOSuc-Ala-Ala-Pro-Val-AMC 100 μM; 25° C., 30 minutes; at least two separate experiments; read-out: HNE inhibition. The format is biochemical. The protocol: Compounds of this invention were tested for potency in a human neutrophil elastase (HNE) enzyme activity assay. HNE Enzyme Assay Assays were performed in 96-well plates in a total assay volume of 100 μL. The final concentration of elastase enzyme (human leukocyte elastase, Sigma E8140) was 0.00072 U/mL. The peptide substrate (MeOSuc-[…], Calbiochem #324740) was used at a final concentration of 100 μM. The final concentration of DMSO was 1% in the assay buffer (0.05M Tris.HCl, 0.1M NaCl, 0.1M CaCl2, 0.0005% brij-35, pH 7.5). The enzymatic reaction was started by addition of the enzyme and incubated at 25° C. for 30 minutes. After incubation, the reaction was stopped by addition of soybean trypsin inhibitor (Sigma T9003) at a final concentration of 50 μg/well. Fluorescence was measured using a Molecular Devices fluorescence plate reader using 380 nm excitation and 460 nm emission wavelengths. A dose response to each compound was performed and the effect of compound in each experiment was expressed as a percentage inhibition of the control enzyme fluorescence. Dose response curves were plotted and compound potency (IC50) was determined. Compounds were tested in at least two separate experiments.
On to `Cc1c(-c2n(-c3ccc(C#N)cc3)cc[n+]2C)n(C(=O)NC2CCCC2)c(=O)n1-c1cccc(C(F)(F)F)c1` [Example 1, 1-(4-Cyanophenyl)-2-{3-(cyclopentylcarbamoyl)-5-methyl-2-oxo-1-[3-(trifluoromethyl)phenyl]-2,3-dihydro-1H-imidazol-4-yl}-3-methyl-1H-imidazol-3-ium benzene sulfonate], for which the IC50 is less than 1 nM.

`Cc1c(-c2n(-c3ccc(C#N)cc3)cc[n+]2Cc2ccccc2)n(C(=O)NC2CCCC2)c(=O)n1-c1cccc(C(F)(F)F)c1` [Example 2, 1-(4-Cyanophenyl)-2-{3-(cyclopentylcarbamoyl)-5-methyl-2-oxo-1-[3-(trifluoromethyl)phenyl]-2,3-dihydro-1H-imidazol-4-yl}-3-benzyl-1H-imidazol-3-ium bromide]: the IC50 is less than 1 nM.

Consider `Cc1c(-c2n(-c3ccc(C#N)cc3)cc[n+]2C)n(C(=O)NC2CCC2)c(=O)n1-c1cccc(C(F)(F)F)c1` [Example 3, 1-(4-Cyanophenyl)-2-{3-(cyclobutylcarbamoyl)-5-methyl-2-oxo-1-[3-(trifluoromethyl)phenyl]-2,3-dihydro-1H-imidazol-4-yl}-3-methyl-1H-imidazol-3-ium benzene sulfonate], for which the IC50 is less than 1 nM.

In the case of `Cc1c(-c2n(-c3ccc(C#N)cc3)cc[n+]2C)n(C(=O)NC2CCN(C(=O)C(F)(F)F)CC2)c(=O)n1-c1cccc(C(F)(F)F)c1` [Example 4, 1-(4-Cyanophenyl)-2-{3-[1-(2,2,2-trifluoro-acetyl)-piperidin-4-ylcarbamoyl]-5-methyl-2-oxo-1-[3-(trifluoromethyl)phenyl]-2,3-dihydro-1H-imidazol-4-yl}-3-methyl-1H-imidazol-3-ium benzene sulfonate], the IC50 was less than 1 nM.

Take `Cc1c(-c2n(-c3ccc(C#N)cc3)cc[n+]2C)n(C(=O)NCc2ccc(S(C)(=O)=O)cc2)c(=O)n1-c1cccc(C(F)(F)F)c1` [Example 5, 1-(4-Cyanophenyl)-2-{3-(4-methanesulfonyl-benzylcarbamoyl)-5-methyl-2-oxo-1-[3-(trifluoromethyl)phenyl]-2,3-dihydro-1H-imidazol-4-yl}-3-methyl-1H-imidazol-3-ium benzene sulfonate]: the IC50 was in the range of 1 to 10 nM.

Turning to `Cc1c(-c2n(-c3ccc(C#N)cc3)nc[n+]2C)n(C(=O)NC2CCCC2)c(=O)n1-c1cccc(C(F)(F)F)c1` [Example 6, 1-(4-Cyano-phenyl)-5-[3-cyclopentylcarbamoyl-5-methyl-2-oxo-1-(3-trifluoromethyl-phenyl)-2,3-dihydro-1H-imidazol-4-yl]-4-methyl-1H-[1,2,4]triazol-4-ium benzene sulfonate], the IC50 was less than 1 nM.

In the case of `Cn1c(-c2n(-c3ccc(C#N)cc3)cc[n+]2C)c(C(=O)NC2CCCC2)c(=O)n1-c1cccc(C(F)(F)F)c1` [Example 7, 3-(4-Cyano-phenyl)-2-[4-cyclopentylcarbamoyl-2-methyl-5-oxo-1-(3-trifluoromethyl-phenyl)-2,5-dihydro-1H-pyrazol-3-yl]-1-methyl-3H-imidazol-1-ium benzenesulfonate], the IC50 is less than 1 nM.

For `Cn1c(-c2n(-c3ccc(C#N)cc3)nc[n+]2C)c(C(=O)NC2CCCC2)c(=O)n1-c1cccc(C(F)(F)F)c1` [Example 8, 1-(4-cyano-phenyl)-5-[4-cyclopentylcarbamoyl-2-methyl-5-oxo-1-(3-trifluoromethyl-phenyl)-2,5-dihydro-1H-pyrazol-3-yl]-4-methyl-1H-[1,2,4]triazol-4-ium benzenesulfonate], the IC50 is less than 1 nM.

Take `Cc1c(-c2ccnn2-c2ccc(C#N)cc2CC[N+](C)(C)C)n(C(=O)NC2CCCC2)c(=O)n1-c1cccc(C(F)(F)F)c1` [Example 9, [2-(5-Cyano-2-{5-[3-cyclopentylcarbamoyl-5-methyl-2-oxo-1-(3-trifluoromethyl-phenyl)-2,3-dihydro-1H-imidazol-4-yl]-pyrazol-1-yl}-phenyl)-ethyl]-trimethyl-ammonium benzene sulfonate]: the IC50 is less than 1 nM.

Consider `Cc1c(-c2ccnn2-c2ccc(C#N)cc2CC[N+](C)(C)Cc2ccccc2)n(C(=O)NC2CCCC2)c(=O)n1-c1cccc(C(F)(F)F)c1` [Example 10, Benzyl-[2-(5-cyano-2-{5-[3-cyclopentylcarbamoyl-5-methyl-2-oxo-1-(3-trifluoromethyl-phenyl)-2,3-dihydro-1H-imidazol-4-yl]-pyrazol-1-yl}-phenyl)-ethyl]-dimethyl-ammonium bromide], for which the IC50 was less than 1 nM.

On to `Cc1c(-c2ccnn2-c2ccc(C#N)cc2CC[N+](C)(C)C)n(C(=O)NC2CCCCC2)c(=O)n1-c1cccc(C(F)(F)F)c1` [Example 11, [2-(5-Cyano-2-{5-[3-cyclohexylcarbamoyl-5-methyl-2-oxo-1-(3-trifluoromethyl-phenyl)-2,3-dihydro-1H-imidazol-4-yl]-pyrazol-1-yl}-phenyl)-ethyl]-trimethyl-ammonium benzene sulphonate], for which the IC50 was less than 1 nM.

As to `Cc1c(-c2ccnn2-c2ccc(C#N)cc2CC[N+](C)(C)C)n(C(=O)NC2CC2)c(=O)n1-c1cccc(C(F)(F)F)c1` [Example 12, [2-(5-Cyano-2-{5-[3-cyclopropylcarbamoyl-5-methyl-2-oxo-1-(3-trifluoromethyl-phenyl)-2,3-dihydro-1H-imidazol-4-yl]-pyrazol-1-yl}-phenyl)-ethyl]-trimethyl-ammonium benzene sulphonate], the IC50 is less than 1 nM.

In the case of `CCNC(=O)n1c(-c2ccnn2-c2ccc(C#N)cc2CC[N+](C)(C)C)c(C)n(-c2cccc(C(F)(F)F)c2)c1=O` [Example 13, [2-(5-Cyano-2-{5-[3-ethylcarbamoyl-5-methyl-2-oxo-1-(3-trifluoromethyl-phenyl)-2,3-dihydro-1H-imidazol-4-yl]-pyrazol-1-yl}-phenyl)-ethyl]-trimethyl-ammonium benzene sulphonate], the IC50 was less than 1 nM.

For the molecule `Cc1c(-c2ccnn2-c2ccc(C#N)cc2CC[N+](C)(C)C)n(C(=O)NC(C)C)c(=O)n1-c1cccc(C(F)(F)F)c1` [Example 14, [2-(5-Cyano-2-{5-[3-isopropylcarbamoyl-5-methyl-2-oxo-1-(3-trifluoromethyl-phenyl)-2,3-dihydro-1H-imidazol-4-yl]-pyrazol-1-yl}-phenyl)-ethyl]-trimethyl-ammonium benzene sulphonate], the IC50 was less than 1 nM.

As for `Cn1c(-c2ccnn2-c2ccc(C#N)cc2CC[N+](C)(C)C)c(C(=O)NC2CCCC2)c(=O)n1-c1cccc(C(F)(F)F)c1` [Example 15, (2-{5-Cyano-2-[4′-cyclopentylcarbamoyl-2′-methyl-5′-oxo-1′-(3-trifluoromethyl-phenyl)-2′,5′-dihydro-1′H-[3,3′]bipyrazolyl-2-yl]-phenyl}-ethyl)-trimethyl-ammonium benzene sulfonate], the IC50 was less than 1 nM.

Regarding `Cn1c(-c2ccnn2-c2ccc(C#N)cc2CC[N+](C)(C)Cc2ccccc2)c(C(=O)NC2CCCC2)c(=O)n1-c1cccc(C(F)(F)F)c1` [Example 16, Benzyl-(2-{5-cyano-2-[4′-cyclopentylcarbamoyl-2′-methyl-5′-oxo-1′-(3-trifluoromethyl-phenyl)-2′,5′-dihydro-1′H-[3,3′]bipyrazolyl-2-yl]-phenyl}-ethyl)-dimethyl-ammonium bromide], the IC50 was less than 1 nM.

Regarding `Cn1c(-c2ccnn2-c2ccc(C#N)cc2CC[N+](C)(C)C)c(C(=O)NC2CCCCC2)c(=O)n1-c1cccc(C(F)(F)F)c1` [Example 17, (2-{5-Cyano-2-[4′-cyclohexylcarbamoyl-2′-methyl-5′-oxo-1′-(3-trifluoromethyl-phenyl)-2′,5′-dihydro-1′H-[3,3′]bipyrazolyl-2-yl]-phenyl}-ethyl)-trimethyl-ammonium benzene sulfonate], the IC50 is less than 1 nM.
